Source: patent EP1048659A1, “RETINOID RECEPTOR AGONISTS” (Institute of Medicinal Molecular Design, Inc., priority 1997, dated 1999)
Several values for one entry are separate records, joined by “and”; a condition that tells them apart may be missing. Equal values may be shown once.

Test system: Promyelocytic leukemia cell strain HL-60
Assay: HL-60 cell differentiation induction (morphological change, NBT reduction), each compound alone and with coexisting retinoid Am80
Type: cell-based
Details: for Ratio of differentiation-induced cells with coexistence of 1×10^-9 Am80: Table 1; for cell differentiation ability of the compound per se: compound used alone; for Ratio of differentiation-induced cells with coexistence of 3×10^-9 Am80: Table 3; for effect on the activity of the coexisting Am80 at a high concentration: compound at 1×10^-6 M; for Ratio of differentiation-induced cells with coexistence of 1×10^-10 Am80: Table 2; for ratios of differentiated cells, Coexisting retinoid (concentration) Am80 (-9): compound fixed at 1×10^-6 M with Am80 (-9); for ratios of differentiated cells, Coexisting retinoid (concentration) Am80 (-9.5): compound fixed at 1×10^-6 M with Am80 (-9.5); for ratios of differentiated cells, Coexisting retinoid (concentration) Am80 (-10): compound fixed at 1×10^-6 M with Am80 (-10); for ratios of differentiated cells, Coexisting retinoid (concentration) None: compound fixed at 1×10^-6 M, alone
Description: Cell differentiation-inducing activity of each compound of the present invention used alone, and effect on cell differentiation-inducing activity of coexisting retinoid were examined. As a comparative or coexisting retinoid, Am80 ([4-[(5,6,7,8-tetrahydro-5,5,8,8-tetramethyl-2-naphthalenyl)carbamoyl]benzoic acid] was used. Promyelocytic leukemia cell strain HL-60 was used, and differentiation into granulocytic cells was determined by observing morphological change and measuring ability to reduce nitroblue tetrazolium (NBT). The ratios of differentiated cells shown in the following tables were calculated from the ability to reduce NBT. (A) Concentration-dependent differentiation-inducing ability of each compound alone and concentration-dependent effect on the differentiation-inducing ability of 1×10^-9 M Am80 were measured. […] Table 1 (B) Concentration-dependent differentiation-inducing ability of each compound alone and concentration-dependent effect on the differentiation inducing ability of 1×10^-10 M Am80 were measured. […] Table 2 (C) Concentration-dependent differentiation-inducing ability of each compound alone and concentration-dependent effect on the differentiation inducing ability of 3×10^-9 M Am80 were measured.

[1] = (A) 1×10^-9 M Am80, enhancement at a concentration which did not give the cell differentiation-inducing ability, result in words
[2] = compound concentration -7, with 1×10^-9 M Am80
[3] = compound concentration -8, with 1×10^-9 M Am80
[4] = compound concentration -6, with 3×10^-9 M Am80
[5] = compound concentration -7, with 3×10^-9 M Am80
[6] = compound concentration -8, with 3×10^-9 M Am80
[7] = (B) 1×10^-10 M Am80, result in words
[8] = compound concentration -6, with 1×10^-10 M Am80
[9] = compound concentration -7, with 1×10^-10 M Am80
[10] = compound concentration -8, with 1×10^-10 M Am80
[11] = compound concentration -6, with 1×10^-9 M Am80

C/C(=C\c1ccc(/C=C2\SC(=O)NC2=O)cc1)c1ccc2c(c1)C(C)(C)CCC2(C)C [TZ91]
effect on the activity of the coexisting Am80 [1]: enhanced the activity of the coexisting Am80
Ratio of differentiation-induced cells with coexistence of 1×10^-9 Am80 [2]: 87%
Ratio of differentiation-induced cells with coexistence of 1×10^-9 Am80 [3]: 62%
Ratio of differentiation-induced cells with coexistence of 1×10^-9 Am80 (compound concentration -9, with 1×10^-9 M Am80): 58%
cell differentiation ability of the compound per se (result in words): had cell differentiation ability

CC1(C)CCC(C)(C)c2cc(C(=O)c3ccc(/C=C4\SC(=O)NC4=O)cc3)ccc21 [TZ221]
Ratio of differentiation-induced cells with coexistence of 3×10^-9 Am80 [4]: 82
Ratio of differentiation-induced cells with coexistence of 3×10^-9 Am80 [5]: 67
Ratio of differentiation-induced cells with coexistence of 3×10^-9 Am80 [6]: 54

CN(c1ccc(/C=C2\SC(=O)NC2=O)cc1)c1ccc2c(c1)C(C)(C)CCC2(C)C [TZ325]
Ratio of differentiation-induced cells with coexistence of 3×10^-9 Am80 [4]: 79
Ratio of differentiation-induced cells with coexistence of 3×10^-9 Am80 [5]: 83
Ratio of differentiation-induced cells with coexistence of 3×10^-9 Am80 [6]: 72

CN(C(=O)c1cc(C(C)(C)C)cc(C(C)(C)C)c1)c1ccc(/C=C2\SC(=O)NC2=O)cc1 [TZ161]
effect on the activity of the coexisting Am80 at a high concentration [7]: acted to suppress the activity
effect on the activity of the coexisting Am80 [7]: enhanced the activity of the coexisting Am80
Ratio of differentiation-induced cells with coexistence of 1×10^-10 Am80 [8]: 3.8%
Ratio of differentiation-induced cells with coexistence of 1×10^-10 Am80 [9]: 25%
Ratio of differentiation-induced cells with coexistence of 1×10^-10 Am80 [10]: 12%
cell differentiation ability of the compound per se (result in words): inactive

C=C(c1ccc(/C=C2\SC(=O)NC2=O)cc1)c1ccc2c(c1)C(C)(C)CCC2(C)C [TZ241]
Ratio of differentiation-induced cells with coexistence of 3×10^-9 Am80 [4]: 92
Ratio of differentiation-induced cells with coexistence of 3×10^-9 Am80 [5]: 84
Ratio of differentiation-induced cells with coexistence of 3×10^-9 Am80 [6]: 76

CC1(C)CCC(C)(C)c2cc(Nc3ccc(/C=C4\SC(=O)NC4=O)cc3)ccc21 [TZ321]
Ratio of differentiation-induced cells with coexistence of 3×10^-9 Am80 [4]: 88
Ratio of differentiation-induced cells with coexistence of 3×10^-9 Am80 [5]: 83
Ratio of differentiation-induced cells with coexistence of 3×10^-9 Am80 [6]: 55

CC(C)(C)c1cc(C(=O)Nc2ccc(/C=C3\SC(=O)NC3=O)cc2)cc(C(C)(C)C)c1 [TZ151]
effect on the activity of the coexisting Am80 [7]: enhanced the activity of the coexisting Am80
Ratio of differentiation-induced cells with coexistence of 1×10^-10 Am80 [8]: 83%
Ratio of differentiation-induced cells with coexistence of 1×10^-10 Am80 [9]: 43%
Ratio of differentiation-induced cells with coexistence of 1×10^-10 Am80 [10]: 12%
cell differentiation ability of the compound per se (result in words): had cell differentiation ability

CC1(C)CCC(C)(C)c2cc(C(=O)Nc3ccc(/C=C4\SC(=O)NC4=O)cc3)ccc21 [TZ181]
effect on the activity of the coexisting Am80 [1]: enhanced the activity of the coexisting Am80
Ratio of differentiation-induced cells with coexistence of 1×10^-9 Am80 [11]: 6%
Ratio of differentiation-induced cells with coexistence of 1×10^-9 Am80 [2]: 58%
Ratio of differentiation-induced cells with coexistence of 1×10^-9 Am80 [3]: 53%
cell differentiation ability of the compound per se (result in words): had cell differentiation ability

CC1(C)CCC(C)(C)c2cc(NC(=O)c3ccc(C(=O)O)cc3)ccc21 [Am80, 4-[(5,6,7,8-tetrahydro-5,5,8,8-tetramethyl-2-naphthalenyl)carbamoyl]benzoic acid, reference compound]
Ratio of differentiation-induced cells with coexistence of 1×10^-9 Am80 (test compound concentration None: 1×10^-9 M Am80 alone, control): 49% and 37% and 48%
Ratio of differentiation-induced cells with coexistence of 1×10^-10 Am80 (test compound concentration None: 1×10^-10 M Am80 alone, control): 4% and 11%
Ratio of differentiation-induced cells with coexistence of 3×10^-9 Am80 (test compound concentration None: 3×10^-9 M Am80 alone, control): 44 and 51
ratios of differentiated cells, Am80 (-9) (Table 4, Compound None: Am80 alone at -9): 80
ratios of differentiated cells, Am80 (-9.5) (Table 4, Compound None: Am80 alone at -9.5): 53
ratios of differentiated cells, Am80 (-10) (Table 4, Compound None: Am80 alone at -10): 8.5

Cc1cc2c(cc1C(=O)c1cccc(/C=C3\SC(=O)NC3=O)c1)C(C)(C)CCC2(C)C [TZ227]
ratios of differentiated cells, Coexisting retinoid (concentration) Am80 (-9) (Table 4): 11.7
ratios of differentiated cells, Coexisting retinoid (concentration) Am80 (-9.5) (Table 4): 5.5
ratios of differentiated cells, Coexisting retinoid (concentration) Am80 (-10) (Table 4): 7
ratios of differentiated cells, Coexisting retinoid (concentration) None (Table 4): 5.3

C=C(c1cccc(/C=C2\SC(=O)NC2=O)c1)c1cc2c(cc1C)C(C)(C)CCC2(C)C [TZ247]
ratios of differentiated cells, Coexisting retinoid (concentration) Am80 (-9) (Table 4): 10
ratios of differentiated cells, Coexisting retinoid (concentration) Am80 (-9.5) (Table 4): 5.8
ratios of differentiated cells, Coexisting retinoid (concentration) Am80 (-10) (Table 4): 6.4
ratios of differentiated cells, Coexisting retinoid (concentration) None (Table 4): 7

CN1c2ccccc2N=C(c2ccc(/C=C3\SC(=O)NC3=O)cc2)c2cc3c(cc21)C(C)(C)CCC3(C)C [TZ201]
effect on the activity of the coexisting Am80 [1]: suppressed the activity of the coexisting Am80
Ratio of differentiation-induced cells with coexistence of 1×10^-9 Am80 [11]: 5%
Ratio of differentiation-induced cells with coexistence of 1×10^-9 Am80 [2]: 53%
Ratio of differentiation-induced cells with coexistence of 1×10^-9 Am80 [3]: 64%
cell differentiation ability of the compound per se (result in words): inactive

C=C(c1ccc(/C=C2\SC(=O)NC2=O)cc1)c1cc2c(cc1C)C(C)(C)CCC2(C)C [TZ245]
Ratio of differentiation-induced cells with coexistence of 3×10^-9 Am80 [4]: 88
Ratio of differentiation-induced cells with coexistence of 3×10^-9 Am80 [5]: 89
Ratio of differentiation-induced cells with coexistence of 3×10^-9 Am80 [6]: 86

O=C1NC(=O)/C(=C/c2cccc(C(=O)NCc3ccc(C(F)(F)F)cc3)c2)S1 [TZ105, reference compound]
effect on the activity of the coexisting retinoid Am80 ((E) comparison N-benzyl derivative, concentrations not given, result in words): failed to effect the activity of the coexisting retinoid Am80
cell differentiation ability of the compound per se (result in words): completely inactive

C=C(c1cccc(/C=C2\SC(=O)NC2=O)c1)c1ccc2c(c1)C(C)(C)CCC2(C)C [TZ243]
ratios of differentiated cells, Coexisting retinoid (concentration) Am80 (-9) (Table 4): 77
ratios of differentiated cells, Coexisting retinoid (concentration) Am80 (-9.5) (Table 4): 35
ratios of differentiated cells, Coexisting retinoid (concentration) Am80 (-10) (Table 4): 5
ratios of differentiated cells, Coexisting retinoid (concentration) None (Table 4): 4.2

CN(C(=O)c1ccc2c(c1)C(C)(C)CCC2(C)C)c1ccc(/C=C2\SC(=O)NC2=O)cc1 [TZ191]
effect on the activity of the coexisting Am80 at a high concentration [7]: acted to suppress the activity
effect on the activity of the coexisting Am80 [7]: enhanced the activity of the coexisting Am80
Ratio of differentiation-induced cells with coexistence of 1×10^-10 Am80 [8]: 28%
Ratio of differentiation-induced cells with coexistence of 1×10^-10 Am80 [9]: 75%
Ratio of differentiation-induced cells with coexistence of 1×10^-10 Am80 [10]: 63%
cell differentiation ability of the compound per se (result in words): inactive

CC1(C)CCC(C)(C)c2cc(C(=O)c3cccc(/C=C4\SC(=O)NC4=O)c3)ccc21 [TZ223]
ratios of differentiated cells, Coexisting retinoid (concentration) Am80 (-9) (Table 4): 62
ratios of differentiated cells, Coexisting retinoid (concentration) Am80 (-9.5) (Table 4): 22
ratios of differentiated cells, Coexisting retinoid (concentration) Am80 (-10) (Table 4): 5
ratios of differentiated cells, Coexisting retinoid (concentration) None (Table 4): 4.4
